Here are results for two compounds from US20120122765A1, “COMPOUNDS AND RELATED METHODS FOR MANIPULATING PARP-1-DEPENDENT CELL DEATH” (priority 2010, published 2012).

One assay concerns HeLa cells. Put plainly: AIF nuclear translocation in HeLa cells after MNNG. The assay is classed as cell-based. The conditions noted are these: MNNG 50 μM for 15 minutes. As for the experimental part:
Unless otherwise set forth herein, immunocytochemistry, immunohistochemistry and confocal microscopy as referenced in the examples entailed the following materials and procedures. For immunocytochemistry, cells were fixed 2 hours after treatment with 4% paraformaldehyde, permeabilized with 0.05% Triton X-100, and blocked with 3% bovine serum albumin in PBS. AIF was visualized by 2 μg/ml mouse anti-Flag/Cyt AffiniPure Donkey Anti-Mouse IgG or rabbit anti-AIF/Cy3 AffiniPure Donkey Anti-Rabbit IgG. Immunohistochemistry was performed using the antibody against Flag. Immunofluorescence analysis thereafter was carried out by using a LSM510 confocal laser scanning microscope (obtained from Carl Zeiss Microlmaging) as described by H. Wang et al. (J. Neurosci, 2004).

The test system of the next assay is Hq cortical neurons. Put plainly: NMDA excitotoxicity in Hq cortical neurons. It counts as cell-based, mouse. Conditions: DPQ (30 μM) or zVAD (100 μM) in addition to NMDA. Here is the method: HQ cortical neuron cells were transduced with lentivirus carrying WT-AIF-Flag or Pbm-AIF-Flag. Non-transduced neurons and GFP-lentivirus infected cells were used as negative controls. […] In those photos, blue indicates Hoechst 33342 staining and red indicates propidium iodide staining. […] The cytotoxicity in these Hq cortical neurons was measured at 24 hours, 36 hours, and 48 hours after NMDA (500 μM for 5 min) treatment, and the data for this is reported in the graph of FIG. 18B.

Another assay deals with Hq MEFs. Put plainly: MNNG cytotoxicity in Hq MEFs. Conditions: zVAD 100 μM, 24 hours after MNNG 500 μM for 15 min. The assay is classed as cell-based, mouse. Here is the method:
Further, the effect WT-AIF-Flag or Pbm-AIF-Flag on Hq MEF cell viability was determined 24 hours after MNNG (500 μM for 15 min) cytotoxicity with and without zVAD (100 μM), and the results of three trials is reported in FIG. 17B.

Where a SMILES comes first, the peptide text is derived from it. The star is where a group is joined. Cbz = O=C(OCc1ccccc1)*; CH2F = FC*

With `O=C1NCCc2c(OCCCCN3CCCCC3)cccc21` [DPQ, 3,4-Dihydro-5[4-(1-piperindinyl)butoxy]-1(2H)-isoquinoline, reference compound], in the assay on HeLa cells, the “effect on nuclear translocation of AIF after MNNG” value was “prevented the nuclear translocation of both endogenous AIF and WT-AIF-Flag”. Moreover, in the assay on Hq cortical neurons, the “effect on NMDA-induced cortical neuron death” value is “inhibited NMDA-induced cortical neuron death”.

With `CC(NC(=O)C(NC(=O)OCc1ccccc1)C(C)C)C(=O)NC(CC(=O)O)C(=O)CF` (stereo not drawn) [zVAD, reference compound] (Cbz-Val-Ala-Asp-CH2F; configuration not given here), in the assay on Hq MEFs, the “effect on MNNG-induced cell death” value is “failed to influence MNNG-induced cell death in MEFs”. In addition, the “effect on NMDA-induced cortical neuron death” value in the assay on Hq cortical neurons is given as “did not”.
